Data on 17 compounds can be found in patent US11834453B2, “Substituted pyrimido[5,4-d]pyrimidines as HER2 inhibitors” (Array BioPharma Inc., priority 2020, dated 2023).

Series [1] has as its target ErbB2 with Exon 20 YVMA insertion (HER2-YVMA) (Homo sapiens (Human), UniProt P04626, INS775YVMA). The series can be described thus: Cellular phosphorylation assay, constitutive ErbB2 phosphorylation (Y1196) in engineered NIH 3T3 cells, Assay 4. In kind it is cell-based. The method in brief:
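Engineered NIH 3T3 cells expressing HER2-YVMA treated with compounds 1 h at 37 °C, then formaldehyde-fixed and methanol-permeabilized. pErbB2 Y1196 detected by in-cell infrared immunofluorescence, normalized to GAPDH. IC50 from the normalized curves.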

Another series concerns the target MDR1 (P-gp) (Homo sapiens (Human), UniProt P08183). The series can be described thus: MDR1 transfected MDCKII canine Mdr1 knockout permeability/efflux, Assay 7. The note with it: dog, MDCK-MDR1.
In another series the target is BCRP (Homo sapiens (Human), UniProt Q9UNQ0). The series can be described thus: BCRP transfected MDCKII canine Mdr1 knockout permeability/efflux, Assay 9. The settings on record: dog, Assay 9 Pe Ratio, efflux ratio Papp(B-A)/Papp(A-B), BCRP transfected MDCKII canine Mdr1 knockout.
The next series has as its target ErbB2 WT (Homo sapiens (Human), UniProt P04626). The series can be described thus: ErbB enzyme assay (CisBio HTRF KinEASE-TK), Assay 2. In kind it is biochemical. Put shortly:
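ErbB2 phosphorylates 250 nM biotin-TK substrate at 1 mM ATP in 25 mM HEPES pH 7.4, 10 mM MgCl2, 0.01% Triton X-100 and 2% DMSO, for 30 min at 22 °C. Product is detected by HTRF with Sa-XL665 and TK-Ab-Cryptate. Percent of control is set by DMSO-only wells and pre-quenched wells.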
(In general: Time-resolved FRET reads energy transfer from a long-lived donor to a nearby acceptor.)

The next series addresses EGFR (Homo sapiens (Human), UniProt P00533). Nature of the series: ErbB enzyme assay (CisBio HTRF KinEASE-TK), Assay 3. In kind it is biochemical. Put shortly: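 Kinase + 250 nM biotin TK-substrate, 1 mM ATP, cpd (3-fold dil.), HEPES pH 7.4/10 mM MgCl2/0.01% Triton/2% DMSO; 30 min 22 °C. Quench w/ Sa-XL665 + TK-Ab-Cryptate, 1 h, HTRF. IC50 = 50 POC on 4PL fit.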
The target in a further series is EGFR wild type (EGFR WT) (Homo sapiens (Human), UniProt P00533). The series can be described thus: Cellular phosphorylation assay, EGF-stimulated EGFR phosphorylation in engineered NIH 3T3 cells, Phospho-EGFR DuoSet IC ELISA, Assay 5. In kind it is cell-based. Put shortly:
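NIH 3T3 cells expressing EGFR WT (20,000/well, attached overnight) were exposed to serially diluted compound for 1 h at 37 °C, then stimulated with 100 ng/ml rEGF for 10 min. Phospho-EGFR in lysates measured by sandwich ELISA optical density; IC50 from curves.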
For orientation: In an ELISA, binding on a coated surface is turned into a signal by an enzyme label.

Series [2] concerns the target ErbB2 insYVMA (HER2-YVMA, SEQ ID NO: 2) (Homo sapiens, UniProt P04626, INS775YVMA/P1170A). Nature of the series: biochemical. The note with it: ErbB2 insYVMA enzyme assay; read-out: Assay 1 IC50.

The structures appear in SMILES notation. pIC50: −log10 of the molar value.

Sequence of BCRP (Q9UNQ0 whole entry): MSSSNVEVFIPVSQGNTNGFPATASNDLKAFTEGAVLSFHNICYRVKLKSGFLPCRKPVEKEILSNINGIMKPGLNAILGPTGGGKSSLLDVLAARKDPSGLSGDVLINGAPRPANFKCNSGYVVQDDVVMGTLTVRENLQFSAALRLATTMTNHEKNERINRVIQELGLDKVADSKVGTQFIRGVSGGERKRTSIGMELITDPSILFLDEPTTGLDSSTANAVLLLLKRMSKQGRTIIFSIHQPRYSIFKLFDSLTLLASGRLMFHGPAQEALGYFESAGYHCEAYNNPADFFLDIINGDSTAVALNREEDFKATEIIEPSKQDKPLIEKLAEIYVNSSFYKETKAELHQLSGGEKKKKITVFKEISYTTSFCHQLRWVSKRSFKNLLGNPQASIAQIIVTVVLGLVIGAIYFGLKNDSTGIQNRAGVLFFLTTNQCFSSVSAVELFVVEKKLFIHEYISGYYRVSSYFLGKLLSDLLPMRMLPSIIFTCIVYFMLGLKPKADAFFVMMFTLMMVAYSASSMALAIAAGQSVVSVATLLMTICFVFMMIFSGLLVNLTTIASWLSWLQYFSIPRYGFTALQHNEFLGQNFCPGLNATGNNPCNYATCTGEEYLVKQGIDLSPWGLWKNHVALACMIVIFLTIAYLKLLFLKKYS
Sequence of EGFR (P00533 25-1210): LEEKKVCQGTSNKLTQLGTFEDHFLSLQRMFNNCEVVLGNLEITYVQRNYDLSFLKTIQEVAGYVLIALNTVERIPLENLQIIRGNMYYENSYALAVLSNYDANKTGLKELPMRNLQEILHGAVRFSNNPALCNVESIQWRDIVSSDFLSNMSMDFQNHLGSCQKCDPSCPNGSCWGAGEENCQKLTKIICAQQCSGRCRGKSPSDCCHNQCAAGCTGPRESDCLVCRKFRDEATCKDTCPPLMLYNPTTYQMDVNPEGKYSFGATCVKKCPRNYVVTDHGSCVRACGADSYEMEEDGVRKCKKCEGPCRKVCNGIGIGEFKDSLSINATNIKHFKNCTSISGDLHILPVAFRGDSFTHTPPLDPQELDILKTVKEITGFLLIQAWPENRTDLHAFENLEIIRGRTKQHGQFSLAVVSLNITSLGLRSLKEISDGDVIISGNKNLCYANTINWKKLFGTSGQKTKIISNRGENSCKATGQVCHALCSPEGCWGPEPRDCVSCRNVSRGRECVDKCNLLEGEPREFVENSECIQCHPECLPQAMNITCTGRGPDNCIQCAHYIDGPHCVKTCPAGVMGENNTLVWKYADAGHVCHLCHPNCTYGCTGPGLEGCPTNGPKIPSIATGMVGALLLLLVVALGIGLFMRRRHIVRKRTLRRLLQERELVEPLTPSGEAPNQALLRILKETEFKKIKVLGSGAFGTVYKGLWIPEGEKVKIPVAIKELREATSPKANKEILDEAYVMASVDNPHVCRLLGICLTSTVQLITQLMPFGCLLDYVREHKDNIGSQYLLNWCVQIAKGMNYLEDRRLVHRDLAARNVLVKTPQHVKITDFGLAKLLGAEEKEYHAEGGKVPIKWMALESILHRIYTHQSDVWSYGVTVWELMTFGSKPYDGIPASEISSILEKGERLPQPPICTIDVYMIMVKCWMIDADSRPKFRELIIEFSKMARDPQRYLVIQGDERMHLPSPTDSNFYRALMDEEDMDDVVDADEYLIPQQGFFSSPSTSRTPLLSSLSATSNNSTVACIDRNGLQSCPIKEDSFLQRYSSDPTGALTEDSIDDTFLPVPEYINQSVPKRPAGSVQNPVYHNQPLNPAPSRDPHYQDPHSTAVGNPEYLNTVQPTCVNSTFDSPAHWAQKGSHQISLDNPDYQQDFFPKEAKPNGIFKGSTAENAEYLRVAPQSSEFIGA
Sequence of EGFR wild type (EGFR WT) (P00533 25-1210): as above
Sequence of ErbB2 insYVMA (HER2-YVMA, SEQ ID NO: 2) (P04626 with tags, fused parts or gaps INS775YVMA/P1170A limits assumed): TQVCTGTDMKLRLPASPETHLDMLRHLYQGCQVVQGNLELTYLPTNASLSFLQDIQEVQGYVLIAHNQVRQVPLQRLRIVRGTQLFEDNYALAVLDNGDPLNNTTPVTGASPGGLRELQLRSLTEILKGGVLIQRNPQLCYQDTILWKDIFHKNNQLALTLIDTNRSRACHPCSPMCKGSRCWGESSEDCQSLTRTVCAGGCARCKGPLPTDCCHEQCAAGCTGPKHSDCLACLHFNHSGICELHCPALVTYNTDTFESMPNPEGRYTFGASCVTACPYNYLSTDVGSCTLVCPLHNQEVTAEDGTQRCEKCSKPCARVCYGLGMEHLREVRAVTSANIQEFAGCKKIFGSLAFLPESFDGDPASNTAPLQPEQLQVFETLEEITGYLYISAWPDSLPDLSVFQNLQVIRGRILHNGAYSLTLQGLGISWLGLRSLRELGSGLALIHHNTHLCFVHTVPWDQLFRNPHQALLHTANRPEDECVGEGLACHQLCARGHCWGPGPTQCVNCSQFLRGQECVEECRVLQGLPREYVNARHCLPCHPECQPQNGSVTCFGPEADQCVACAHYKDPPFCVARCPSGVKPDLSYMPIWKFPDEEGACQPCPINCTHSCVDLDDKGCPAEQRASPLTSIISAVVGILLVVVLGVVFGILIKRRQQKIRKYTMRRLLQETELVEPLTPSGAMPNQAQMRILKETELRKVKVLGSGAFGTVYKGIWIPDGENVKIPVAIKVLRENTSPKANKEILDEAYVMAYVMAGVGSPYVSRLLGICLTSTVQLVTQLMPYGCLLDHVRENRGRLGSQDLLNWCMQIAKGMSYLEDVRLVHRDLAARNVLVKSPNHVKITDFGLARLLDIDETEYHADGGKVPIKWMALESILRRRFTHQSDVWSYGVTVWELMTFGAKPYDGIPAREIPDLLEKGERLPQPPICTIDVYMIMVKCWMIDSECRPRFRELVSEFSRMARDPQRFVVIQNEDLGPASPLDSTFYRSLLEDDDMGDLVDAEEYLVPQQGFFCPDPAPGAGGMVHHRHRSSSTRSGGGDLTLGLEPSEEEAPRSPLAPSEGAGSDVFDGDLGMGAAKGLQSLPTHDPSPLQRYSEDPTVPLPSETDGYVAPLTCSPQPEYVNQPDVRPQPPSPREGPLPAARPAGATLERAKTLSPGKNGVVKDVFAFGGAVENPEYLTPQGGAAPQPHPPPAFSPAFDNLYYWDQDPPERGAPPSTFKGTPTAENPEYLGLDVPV

In the case of `COC[C@H](O)CN(C)c1ncc2ncnc(Nc3ccc(Oc4ccc5c(c4)ncn5C)c(C)c3)c2n1` (racemic) [Example 100, rac-(R)-1-methoxy-3-(methyl(8-((3-methyl-4-((1-methyl-1H-benzo[d]imidazol-5-yl)oxy)phenyl)amino)pyrimido[5,4-d]pyrimidin-2-yl)amino)propan-2-ol], the negative-log IC50 (pIC50) in series [1] is 7.68; at ErbB2 WT it was 7.50; at EGFR, 5.38; against EGFR wild type (EGFR WT), not above 5.30; in series [2] it was 7.54. The efflux ratio at 2 h, 1 μM is 1.5 at MDR1 (P-gp) and 18.2 on BCRP.
With `Cc1cc(Nc2ncnc3cnc(N4CC[C@@](O)(C(F)F)C4)nc23)ccc1Oc1ccc2c(c1)ncn2C` (racemic) [Example 106, rac-(R)-3-(difluoromethyl)-1-(8-((3-methyl-4-((1-methyl-1H-benzo[d]imidazol-5-yl)oxy)phenyl)amino)pyrimido[5,4-d]pyrimidin-2-yl)pyrrolidin-3-ol], the negative-log IC50 (pIC50) is 7.74 in series [1]; 7.78 against ErbB2 WT; 5.55 against EGFR; not above 5.30 against EGFR wild type (EGFR WT); 7.77 in series [2]. The efflux ratio at 2 h, 1 μM was 2.6 on MDR1 (P-gp) and 24.3 on BCRP.
For `Cn1cnc2cc(Oc3ccc(Nc4ncnc5cnc(N6CC[C@@H](CC#N)C6)nc45)cc3Cl)ccc21` [Example 134, (S)-2-(1-(8-((3-chloro-4-((1-methyl-1H-benzo[d]imidazol-5-yl)oxy)phenyl)amino)pyrimido[5,4-d]pyrimidin-2-yl)pyrrolidin-3-yl)acetonitrile], the pIC50 in series [1] is 8.07; at EGFR it was not above 5.00; on EGFR wild type (EGFR WT), not above 5.30; in series [2], 7.26. Moreover, the efflux ratio at 2 h, 1 μM on MDR1 (P-gp) worked out at 1.8; at BCRP, 6.8.
On to `Cc1cc(Nc2ncnc3cnc(N(C)[C@H]4C[C@@](C)(O)C4)nc23)ccc1Oc1ccc2c(c1)ncn2C` [Example 165, (1s, 3s)-1-methyl-3-(methyl(8-((3-methyl-4-((1-methyl-1H-benzo[d]imidazol-5-yl)oxy)phenyl)amino)pyrimido[5,4-d]pyrimidin-2-yl)amino)cyclobutan-1-ol], for which the pIC50 in series [1] was 7.94; against ErbB2 WT it was 8.25; at EGFR, 6.67; against EGFR wild type (EGFR WT), not above 5.30; in series [2] it was 8.12. Further, the efflux ratio at 2 h, 1 μM at MDR1 (P-gp) turned out to be 2.1.
Turning to `Cc1cc(Nc2ncnc3cnc(N4C[C@@H](C)[C@H](O)C4)nc23)ccc1Oc1ccc2c(c1)ncn2C` [Example 167, (3S,4R)-4-methyl-1-(8-((3-methyl-4-((1-methyl-1H-benzo[d]imidazol-5-yl)oxy)phenyl)amino)pyrimido[5,4-d]pyrimidin-2-yl)pyrrolidin-3-ol], the pIC50 in series [1] is 7.62; at ErbB2 WT it was 7.46; against EGFR, 5.04; against EGFR wild type (EGFR WT), not above 5.30; in series [2] it was 7.75. In addition, the efflux ratio at 2 h, 1 μM on MDR1 (P-gp) amounted to 2.8.
Regarding `Cc1cc(Nc2ncnc3cnc(N4CC[C@@H](O)C4)nc23)ccc1Oc1ccc2c(c1)ncn2C` [Example 169, (R)-1-(8-((3-methyl-4-((1-methyl-1H-benzo[d]imidazol-5-yl)oxy)phenyl)amino)pyrimido[5,4-d]pyrimidin-2-yl)pyrrolidin-3-ol], the pIC50 in series [1] was 8.33; at ErbB2 WT it was 7.95; against EGFR, 5.79; against EGFR wild type (EGFR WT) it was not above 5.30; in series [2], 8.07. On MDR1 (P-gp), the efflux ratio at 2 h, 1 μM came to 3.6.
Take `Cc1cc(Nc2ncnc3cnc(N4CC[C@H](O)C4)nc23)ccc1Oc1ccc2c(c1)ncn2C` [Example 174, (S)-1-(8-((3-methyl-4-((1-methyl-1H-benzo[d]imidazol-5-yl)oxy)phenyl)amino)pyrimido[5,4-d]pyrimidin-2-yl)pyrrolidin-3-ol]: the pIC50 in series [1] was 8.10; on ErbB2 WT it was 7.50; against EGFR it was 5.56; against EGFR wild type (EGFR WT) it was not above 5.30; in series [2] it was 7.94. Also, the efflux ratio at 2 h, 1 μM on MDR1 (P-gp) came to 3.1.
In the case of `Cc1cc(Nc2ncnc3cnc(N4CCC(CC#N)C4)nc23)ccc1Oc1ccc2c(c1)ncn2C` (centres unmarked) [Example 192, 2-(1-(8-((3-methyl-4-((1-methyl-1H-benzo[d]imidazol-5-yl)oxy)phenyl)amino)pyrimido[5,4-d]pyrimidin-2-yl)pyrrolidin-3-yl)acetonitrile], the pIC50 in series [1] is 7.88; against ErbB2 WT, 7.35; on EGFR, not above 5.00; against EGFR wild type (EGFR WT), not above 5.30; in series [2], 7.72. Also, on MDR1 (P-gp), the efflux ratio at 2 h, 1 μM amounted to 1.6.
For `Cc1cc(Nc2ncnc3cnc(N4CCNC(=O)C4)nc23)ccc1Oc1ccc2c(c1)ncn2C` [Example 198, 4-(8-((3-methyl-4-((1-methyl-1H-benzo[d]imidazol-5-yl)oxy)phenyl)amino)pyrimido[5,4-d]pyrimidin-2-yl)piperazin-2-one], the pIC50 is 7.42 in series [1]; 7.66 against ErbB2 WT; 5.48 at EGFR; not above 5.30 on EGFR wild type (EGFR WT); 7.70 in series [2]. Moreover, the efflux ratio at 2 h, 1 μM at MDR1 (P-gp) came out at 10.7.
`Cc1cc(Nc2ncnc3cnc(N4CC5(CC(O)C5)C4)nc23)ccc1Oc1ccc2c(c1)ncn2C` [Example 213, 2-(8-((3-methyl-4-((1-methyl-1H-benzo[d]imidazol-5-yl)oxy)phenyl)amino)pyrimido[5,4-d]pyrimidin-2-yl)-2-azaspiro[3.3]heptan-6-ol]: the pIC50 in series [1] was 7.47; against ErbB2 WT, 7.47; on EGFR it was not above 5.00; against EGFR wild type (EGFR WT) it was not above 5.30; in series [2] it was 7.71. Also, at MDR1 (P-gp), the efflux ratio at 2 h, 1 μM came out at 2.4.
`Cc1cc(Nc2ncnc3cnc(N[C@@H]4CNCC4(F)F)nc23)ccc1Oc1ccc2c(c1)ncn2C` [Example 297]: the pIC50 was 7.53 in series [1]; 7.40 on ErbB2 WT; 5.48 on EGFR; not above 5.30 on EGFR wild type (EGFR WT); 7.75 in series [2]. Besides, the efflux ratio at 2 h, 1 μM at MDR1 (P-gp) is 3.2.
Consider `Cc1cc(Nc2ncnc3cnc(NCC4(O)COC4)nc23)ccc1Oc1ccc2c(c1)ncn2C` [Example 319], for which the pIC50 was 7.58 in series [1]; 8.35 against ErbB2 WT; 6.06 at EGFR; not above 5.30 against EGFR wild type (EGFR WT); 7.78 in series [2]. The efflux ratio at 2 h, 1 μM at MDR1 (P-gp) was found to be 10.6.
Regarding `CN(c1ncc2ncnc(Nc3ccc(Oc4ccn5ncnc5c4)c(Cl)c3)c2n1)[C@H]1CCCOC1` [Example 360], the pIC50 in series [1] is 7.53; against ErbB2 WT it was 7.59; against EGFR, not above 5.00; at EGFR wild type (EGFR WT) it was not above 5.30; in series [2], 7.60. For the same compound, on MDR1 (P-gp), the efflux ratio at 2 h, 1 μM amounted to 1.3.
`CC1(O)CCN(c2ncc3ncnc(Nc4ccc(Oc5ccn6ncnc6c5)c(Cl)c4)c3n2)CC1` [Example 435]: the pIC50 in series [1] is 7.46; against ErbB2 WT, 7.48; against EGFR it was 5.31; on EGFR wild type (EGFR WT) it was not above 5.30; in series [2], 7.93. Further, the efflux ratio at 2 h, 1 μM at MDR1 (P-gp) is 1.2.
Turning to `Cc1cc(Nc2ncnc3cnc(N4CC[C@H](CC#N)C4)nc23)ccc1Oc1ccc2c(c1)ncn2C` [Example 469], the pIC50 in series [1] is 7.88; against ErbB2 WT, 7.35; against EGFR it was not above 5.00; on EGFR wild type (EGFR WT), not above 5.30; in series [2], 7.72. Further, the efflux ratio at 2 h, 1 μM on MDR1 (P-gp) is 1.6.
On to `Cc1cc(Nc2ncnc3cnc(N4C[C@@H]5C[C@H]4C[C@@H]5O)nc23)ccc1Oc1ccc2c(c1)ncn2C` [Example 470], for which the pIC50 in series [1] was 7.61; on ErbB2 WT, 7.28; against EGFR, 5.16; against EGFR wild type (EGFR WT), not above 5.30; in series [2], 7.42. In addition, the efflux ratio at 2 h, 1 μM at MDR1 (P-gp) was found to be 2.5.
Regarding `Cn1cnc2cc(Oc3ccc(Nc4ncnc5cnc(N6CCN(C7COC7)CC6)nc45)cc3Cl)ccc21` [Example 485], the pIC50 was 7.95 in series [1]; 7.11 against ErbB2 WT; not above 5.00 at EGFR; not above 5.30 at EGFR wild type (EGFR WT); 7.66 in series [2]. Further, the efflux ratio at 2 h, 1 μM on MDR1 (P-gp) is 1.3.

What is called pIC50 is the negative decadic logarithm of the IC50, by convention in mol/L. The efflux ratio is the permeability from basolateral to apical divided by that in the opposite direction, in the common usage.
